Structures are written as SMILES.

The nature of data set [1]: Coffee mug cross section analysis of brewed cup, 1:10 oil/TM mix underneath the filter. The data set is classed as physicochemical. The settings on record: 1:10 oil/TM mix underneath filter. Here is the method: This example investigated how THC was interacting with the coffee mug after it had been brewed. A cup of coffee was brewed with the 1:10 oil/TM mix placed in the K-Cup underneath the filter containing coffee grounds.
Two separate aliquots were taken from the cup (top and middle), and then coffee was carefully poured out. Methanol was added to the cup and the oil that had condensed to the sides of the cup was dissolved and quantified.

The conditions of data set [2]: cited from earlier work.

With `CCCCCc1cc(O)c2c(c1)OC(C)(C)[C@@H]1CCC(C)=C[C@@H]21` [THC, delta-9-tetrahydrocannabinol], in data set [1], the “THC found in the oily coffee film at the top of the cup” value is given as 20-25%, the “THC in the coffee” value was “approximately 60%” and the “THC lost (unknown cause)” value was determined as 20%. The “THC in a 200 mL cup of coffee at aqueous solubility” value in data set [2] is given as 0.6 mg.

(Values after US10897915B2, “Method for making coffee products containing cannabis ingredients” (Blacklist Holdings, Inc., priority 2014, dated 2021).)
